Results on three molecules are retold here after paper PMC3259201 (European Journal of Medicinal Chemistry, 2011).

This test has as its system HIV-1 NL4-3 strain. The experiment in a line: HIV-1 infectivity assay, single cycle infection of TZM-bl cells. The format is cell-based. Conditions: wild-type HIV-1 NL4-3 strain.

Molecules are shown by their SMILES. “Also recorded” adds a separate entry of the source.

`COc1cc2c(c3oc4c(C)cccc4c(=O)c13)[C@@H](OC(=O)C13CCC(C)(C(=O)O1)C3(C)C)[C@@H](OC(=O)C13CCC(C)(C(=O)O1)C3(C)C)C(C)(C)O2` (stereo partly drawn) [Compound 10, 1R,2R-(-)-Dicamphanoyl-3,3,11-trimethyl-6-methoxy-1,2-dihydropyrano[2,3-c]xanthen-7(1H)-one]: the “anti-HIV activity (in words)” value was “almost inactive”.

`COc1cccc2c(=O)c3c(OC)cc4c(c3oc12)[C@@H](OC(=O)[C@@]12CCC(C)(C(=O)O1)C2(C)C)[C@@H](OC(=O)[C@@]12CCC(C)(C(=O)O1)C2(C)C)C(C)(C)O4` [Compound 14, 1R,2R-(-)-Dicamphanoyl-3,3-dimethyl-6,11-dimethoxy-1,2-dihydropyrano[2,3-c]xanthen-7(1H)-one]: the “anti-HIV activity (in words)” value is recorded as “no detectable anti-HIV activity or selectivity”.

With `CC1(C)Oc2cc(O)c3c(=O)c4ccccc4oc3c2[C@@H](OC(=O)[C@@]23CCC(C)(C(=O)O2)C3(C)C)[C@H]1OC(=O)[C@@]12CCC(C)(C(=O)O1)C2(C)C` [Compound 9, 1R,2R-(-)-Dicamphanoyl-3,3-dimethyl-6-hydroxy-1,2-dihydropyrano[2,3-c]xanthen-7(1H)-one], the “anti-HIV activity (in words)” value is given as “did not show notable activity or selectivity; also recorded: did not exhibit anti-HIV activity”.
